What was measured:
[1] = molecular target: human D3 dopamine receptor (Homo sapiens (Human), UniProt P35462); assay: Radioligand binding (125I-IABN competition), D3; conditions: for Ki: 125I-IABN competition, HEK cell membranes expressing human D3; for D2/D3 (D3 selectivity ratio, D2 Ki/D3 Ki): calculated D2 Ki/D3 Ki
Method: (§1) The affinities of the target compounds were determined using radioligand binding experiments. […] Competition curves were modeled for a single site. Data from competition dose-response curves were analyzed using Tablecurve program (Jandel). IC50 values were converted to equilibrium dissociation constants (Ki values) using the Cheng and Prusoff correction.

[2] = molecular target: human D2-long dopamine receptor (Homo sapiens (Human), UniProt P14416); assay: Radioligand binding (125I-IABN competition), D2; conditions: HEK cell membranes expressing human D2-long
Sequence of human D2-long dopamine receptor (P14416 whole entry): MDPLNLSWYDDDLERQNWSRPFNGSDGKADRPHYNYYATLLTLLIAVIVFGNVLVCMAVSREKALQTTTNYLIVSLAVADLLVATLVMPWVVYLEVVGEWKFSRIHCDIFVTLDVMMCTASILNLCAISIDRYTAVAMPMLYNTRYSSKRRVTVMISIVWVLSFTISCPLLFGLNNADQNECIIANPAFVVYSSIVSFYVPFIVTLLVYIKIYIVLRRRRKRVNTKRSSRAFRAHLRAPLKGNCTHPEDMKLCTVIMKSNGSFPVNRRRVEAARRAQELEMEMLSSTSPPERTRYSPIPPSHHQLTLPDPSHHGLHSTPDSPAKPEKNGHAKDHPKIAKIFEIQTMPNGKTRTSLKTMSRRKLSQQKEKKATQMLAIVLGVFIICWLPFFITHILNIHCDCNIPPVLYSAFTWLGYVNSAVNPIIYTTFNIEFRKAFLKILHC
Method: as §1

Sequence of human D3 dopamine receptor (P35462 whole entry): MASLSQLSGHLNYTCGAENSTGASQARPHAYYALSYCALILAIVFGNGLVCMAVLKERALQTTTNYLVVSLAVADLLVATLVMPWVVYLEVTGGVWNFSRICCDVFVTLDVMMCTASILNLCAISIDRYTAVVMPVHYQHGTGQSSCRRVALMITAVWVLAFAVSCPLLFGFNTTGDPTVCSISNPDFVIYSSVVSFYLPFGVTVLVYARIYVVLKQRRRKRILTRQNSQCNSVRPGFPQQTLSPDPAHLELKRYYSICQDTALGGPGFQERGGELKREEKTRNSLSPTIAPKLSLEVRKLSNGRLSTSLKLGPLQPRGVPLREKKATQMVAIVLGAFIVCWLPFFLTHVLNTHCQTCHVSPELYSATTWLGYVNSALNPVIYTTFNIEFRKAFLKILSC

Row | Ki [1] [nM] | D2/D3 (D3 selectivity ratio, D2 Ki/D3 Ki) [1] | Ki [2] [nM] | SMILES
1 | 87.9 ± 22.8 | 32 | 2790 ± 942 | O=C(NCCCCN1CCN(c2ccnc3cc(Cl)ccc23)CC1)N1CCC(c2ccccc2)CC1 [Compound 85, N-(4-(4-(7-Chloroquinolin-4-yl)piperazin-1-yl)butyl)-4-phenylpiperidine-1-carboxamide]
2 | 110 ± 11.6 | 17 | 1850 ± 197 | CC(C)(C)c1cc(N2CCN(CCCCNC(=O)N3CCN(c4ccccc4)CC3)CC2)cc(C(C)(C)C)c1 [Compound 86, N-(4-(4-(3,5-Di-tert-butylphenyl)piperazin-1-yl)butyl)-4-phenylpiperazine-1-carboxamide]
3 | 28.3 ± 5.3 | 14 | 382 ± 91 | Cc1nnc2n1CCN(C(=O)NCCCCN1CCN(c3cc(C(F)(F)F)nc(C(C)(C)C)n3)CC1)C2 [Compound 87, N-(4-(4-(2-(tert-Butyl)-6-(trifluoromethyl)pyrimidin-4-yl)piperazin-1-yl)butyl)-3-methyl-5,6-dihydro-[1,2,4]triazolo[4,3-a]pyrazine-7(8H)-carboxamide]
4 | 668 ± 122 | 16 | 10500 ± 2240 | Cc1nc(N2CCN(CCCCNC(=O)N3CCn4c(C)nnc4C3)CC2)cc(C(C)(C)C)n1 [Compound 88, N-(4-(4-(6-(tert-Butyl)-2-methylpyrimidin-4-yl)piperazin-1-yl)butyl)-3-methyl-5,6-dihydro-[1,2,4]triazolo[4,3-a]pyrazine-7(8H)-carboxamide]
5 | 110 ± 21.6 | 11 | 1180 ± 180 | CC(C)(C)c1nc(N2CCN(CCCCNC(=O)N3CCc4[nH]c5ccccc5c4C3)CC2)cc(C(F)(F)F)n1 [Compound 89, N-(4-(4-(2-(tert-Butyl)-6-(trifluoromethyl)pyrimidin-4-yl)piperazin-1-yl)butyl)-3,4-dihydro-1H-pyrido[4,3-b]indole-2(5H)-carboxamide]
6 | 128 ± 30.3 | 10 | 1340 ± 166 | Cc1ccc2[nH]c3c(c2c1)CN(C(=O)NCCCCN1CCN(c2cc(C(F)(F)F)nc(C(C)(C)C)n2)CC1)CC3 [Compound 90, N-(4-(4-(2-(tert-Butyl)-6-(trifluoromethyl)pyrimidin-4-yl)piperazin-1-yl)butyl)-8-methyl-3,4-dihydro-1H-pyrido[4,3-b]indole-2(5H)-carboxamide]
7 | 200 ± 47.6 | 6 | 1210 ± 211 | CC(C)(C)c1nc(N2CCN(CCCCNC(=O)N3CCc4[nH]c5ccc(Cl)cc5c4C3)CC2)cc(C(F)(F)F)n1 [Compound 91, N-(4-(4-(2-(tert-Butyl)-6-(trifluoromethyl)pyrimidin-4-yl)piperazin-1-yl)butyl)-8-chloro-3,4-dihydro-1H-pyrido[4,3-b]indole-2(5H)-carboxamide]
8 | 166 ± 4.1 | 8 | 1350 ± 241 | COc1ccc2[nH]c3c(c2c1)CN(C(=O)NCCCCN1CCN(c2cc(C(F)(F)F)nc(C(C)(C)C)n2)CC1)CC3 [Compound 92, N-(4-(4-(2-(tert-Butyl)-6-(trifluoromethyl)pyrimidin-4-yl)piperazin-1-yl)butyl)-8-methoxy-3,4-dihydro-1H-pyrido[4,3-b]indole-2(5H)-carboxamide]
9 | 84.8 ± 21.3 | 7 | 560 ± 53 | CC(C)(C)c1nc(N2CCN(CCCCNC(=O)N3CCc4[nH]c5ccc(C(F)(F)F)cc5c4C3)CC2)cc(C(F)(F)F)n1 [Compound 93, N-(4-(4-(2-(tert-Butyl)-6-(trifluoromethyl)pyrimidin-4-yl)piperazin-1-yl)butyl)-8-(trifluoromethyl)-3,4-dihydro-1H-pyrido[4,3-b]indole-2(5H)-carboxamide]
10 | 219 ± 23.8 | 25 | 5480 ± 1150 | Cc1ccc2[nH]c3c(c2c1)CN(C(=O)NCCCCN1CCN(c2cc(C(C)(C)C)nc(C)n2)CC1)CC3 [Compound 94, N-(4-(4-(6-(tert-Butyl)-2-methylpyrimidin-4-yl)piperazin-1-yl)butyl)-8-methyl-3,4-dihydro-1H-pyrido[4,3-b]indole-2(5H)-carboxamide]
11 | 215 ± 45.5 | 26 | 5560 ± 1340 | Cc1nc(N2CCN(CCCCNC(=O)N3CCc4[nH]c5ccc(Cl)cc5c4C3)CC2)cc(C(C)(C)C)n1 [Compound 95, N-(4-(4-(6-(tert-Butyl)-2-methylpyrimidin-4-yl)piperazin-1-yl)butyl)-8-chloro-3,4-dihydro-1H-pyrido[4,3-b]indole-2(5H)-carboxamide]
12 | 74.9 ± 15 | >66 | > 5000 | COc1ccc2[nH]c3c(c2c1)CN(C(=O)NCCCCN1CCN(c2cc(C(C)(C)C)nc(C)n2)CC1)CC3 [Compound 96, N-(4-(4-(6-(tert-Butyl)-2-methylpyrimidin-4-yl)piperazin-1-yl)butyl)-8-methoxy-3,4-dihydro-1H-pyrido[4,3-b]indole-2(5H)-carboxamide]
13 | 245 ± 46.4 | 10 | 2440 ± 175 | CC(C)(C)c1cc(N2CCN(CCCCNC(=O)N3CCc4[nH]c5ccccc5c4C3)CC2)cc(C(C)(C)C)c1 [Compound 97, N-(4-(4-(3,5-Di-tert-butylphenyl)piperazin-1-yl)butyl)-3,4-dihydro-1H-pyrido[4,3-b]indole-2(5H)-carboxamide]
14 | 1020 ± 201 | 6 | 6400 ± 1100 | Cc1nc(N2CCN(CCCCNC(=O)N3CCc4[nH]c5ccc(C(F)(F)F)cc5c4C3)CC2)cc(C(C)(C)C)n1 [Compound 98, N-(4-(4-(6-(tert-Butyl)-2-methylpyrimidin-4-yl)piperazin-1-yl)butyl)-8-(trifluoromethyl)-3,4-dihydro-1H-pyrido[4,3-b]indole-2(5H)-carboxamide]
15 | 299 ± 37.8 | 24 | 7250 ± 754 | O=C(NCCCCN1CCN(c2cc(C(F)(F)F)nc3ccccc23)CC1)N1CCN(c2ccccc2)CC1 [Compound 99, 4-Phenyl-N-(4-(4-(2-(trifluoromethyl)quinolin-4-yl)piperazin-1-yl)butyl)piperazine-1-carboxamide]
16 | 5320 ± 2220 | >18 | > 100000 | O=C(NCCCCN1CCN(c2cc(C(F)(F)F)nc3ccccc23)CC1)N1CCC(c2ccccc2)CC1 [Compound 100, 4-Phenyl-N-(4-(4-(2-(trifluoromethyl)quinolin-4-yl)piperazin-1-yl)butyl)piperidine-1-carboxamide]
17 | 19.2 | 50 | 962 | CC(C)(C)c1nc(N2CCN(CCCCNC(=O)N3CCN(c4ccccc4)C(=O)C3)CC2)cc(C(F)(F)F)n1 [Compound 102, N-(4-(4-(2-(tert-Butyl)-6-(trifluoromethyl)pyrimidin-4-yl)piperazin-1-yl)butyl)-3-oxo-4-phenylpiperazine-1-carboxamide]
18 | 34.5 ± 7.6 | 29 | 1020 ± 68.2 | O=C(NCCCCN1CCN(c2ccnc3cc(Cl)ccc23)CC1)C1CCC(c2ccccc2)CC1 (stereo not drawn) [Compound 105, N-(4-(4-(7-Chloroquinolin-4-yl)piperazin-1-yl)butyl)-4-phenylcyclohexanecarboxamide]
19 | 62 ± 12.7 | 50 | 3090 ± 768 | O=C(NCCCCN1CCN(c2ccc3ccccc3n2)CC1)C1CCC(c2ccccc2)CC1 (stereo not drawn) [Compound 106, 4-Phenyl-N-(4-(4-(quinolin-2-yl)piperazin-1-yl)butyl)cyclohexanecarboxamide]
20 | 30.6 ± 7.4 | 32 | 970 ± 137 | Cc1cc(N2CCN(CCCCNC(=O)C3CCN(c4ccc(C(F)(F)F)cn4)CC3)CC2)nc(C(C)(C)C)n1 [Compound 107, N-(4-(4-(2-(tert-Butyl)-6-methylpyrimidin-4-yl)piperazin-1-yl)butyl)-1-(5-(trifluoromethyl)pyridin-2-yl)piperidine-4-carboxamide]
21 | 35.6 ± 1.4 | – | 337 | CC(C)(C)c1nc(N2CCN(CCCCNC(=O)C3CCN(Cc4ccccc4)CC3)CC2)cc(C(F)(F)F)n1 [Compound 109, 1-Benzyl-N-(4-(4-(2-(tert-butyl)-6-(trifluoromethyl)pyrimidin-4-yl)piperazin-1-yl)butyl)piperidine-4-carboxamide]
22 | 167 ± 8.5 | 11 | 1800 ± 257 | CC(C)(C)c1nc(N2CCN(CCCCNC(=O)C3CCN(c4ccc(C(F)(F)F)cn4)CC3)CC2)cc(C(F)(F)F)n1 [Compound 110, N-(4-(4-(2-(tert-Butyl)-6-(trifluoromethyl)pyrimidin-4-yl)piperazin-1-yl)butyl)-1-(5-(trifluoromethyl)pyridin-2-yl)piperidine-4-carboxamide]
23 | 45.4 ± 11.3 | – | 934 ± 222 | CC(C)(C)c1nc(N2CCN(CCCCNC(=O)c3cn4c(CO)cccc4n3)CC2)cc(C(F)(F)F)n1 [Compound 119, N-(4-(4-(2-(tert-Butyl)-6-(trifluoromethyl)pyrimidin-4-yl)piperazin-1-yl)butyl)-5-(hydroxymethyl)imidazo[1,2-a]pyridine-2-carboxamide]
24 | 18.8 ± 3.5 | 19 | 361 | CC(C)(C)c1cc(N2CCN(CCCCNC(=O)c3cn4ccccc4n3)CC2)nc(C(C)(C)C)n1 [Compound 122, N-(4-(4-(2,6-Di-tert-butylpyrimidin-4-yl)piperazin-1-yl)butyl)imidazo[1,2-a]pyridine-2-carboxamide]
25 | 78.2 ± 19.2 | – | 1450 ± 275 | CC(C)(C)c1nc(N2CCN(CCCCNC(=O)c3cn4ccccc4n3)CC2)c2ccccc2n1 [Compound 123, N-(4-(4-(2-(tert-Butyl)quinazolin-4-yl)piperazin-1-yl)butyl)imidazo[1,2-a]pyridine-2-carboxamide]

From patent US9598387B2 (Southern Research Institute, priority 2012, dated 2017)
